Results published in paper PMC7432509, “Investigating the Product Profiles and Structural Relationships of New Levansucrases with Conventional and Non-Conventional Substrates” (International Journal of Molecular Sciences, 2020).

How the values were obtained:
Assay type in all cases: biochemical
[1] = target: T1, LS from Novosphingobium aromaticivorans (Novosphingobium aromaticivorans, UniProt Q2G754); assay: HPAEC-PAD, bioconversion of raffinose; details: raffinose as sole fructosyl donor and acceptor (0.8 M in methods, 0.9 M in figure legend)
T1 construct: gene Saro_1879; pET22b(+), E. coli BL21(DE3), HisTrap purified
T1 sequence (Q2G754 1-377): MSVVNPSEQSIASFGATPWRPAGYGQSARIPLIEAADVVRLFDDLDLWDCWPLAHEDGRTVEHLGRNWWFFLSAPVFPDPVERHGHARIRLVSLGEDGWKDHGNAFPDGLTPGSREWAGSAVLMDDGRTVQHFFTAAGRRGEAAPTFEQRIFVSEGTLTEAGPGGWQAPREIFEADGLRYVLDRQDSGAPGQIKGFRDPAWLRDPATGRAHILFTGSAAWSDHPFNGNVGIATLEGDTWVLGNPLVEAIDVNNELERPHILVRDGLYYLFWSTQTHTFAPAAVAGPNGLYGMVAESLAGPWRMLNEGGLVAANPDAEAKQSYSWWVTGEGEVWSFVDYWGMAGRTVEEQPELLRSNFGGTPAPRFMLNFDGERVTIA

[2] = target: T2, LS from Gluconobacter oxydans (Gluconobacter oxydans, UniProt Q5FSK0); assay: HPAEC-PAD, bioconversion of raffinose; details: raffinose as sole fructosyl donor and acceptor (0.8 M in methods, 0.9 M in figure legend)
T2 construct: gene GOX0873; pET22b(+), E. coli BL21(DE3), HisTrap purified
T2 sequence (Q5FSK0 1-436): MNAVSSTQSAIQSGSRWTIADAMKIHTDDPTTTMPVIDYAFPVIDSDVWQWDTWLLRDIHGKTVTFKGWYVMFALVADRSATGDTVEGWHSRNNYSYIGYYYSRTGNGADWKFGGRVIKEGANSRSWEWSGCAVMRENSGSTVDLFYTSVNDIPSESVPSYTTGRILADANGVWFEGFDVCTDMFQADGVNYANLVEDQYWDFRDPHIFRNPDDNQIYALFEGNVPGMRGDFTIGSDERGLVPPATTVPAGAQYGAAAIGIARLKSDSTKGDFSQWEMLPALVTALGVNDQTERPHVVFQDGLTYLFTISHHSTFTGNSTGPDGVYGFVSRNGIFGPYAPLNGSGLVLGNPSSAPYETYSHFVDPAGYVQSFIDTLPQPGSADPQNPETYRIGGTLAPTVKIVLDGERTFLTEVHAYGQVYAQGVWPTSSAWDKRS

[3] = target: T3, LS from Paraburkholderia graminis (Paraburkholderia graminis, UniProt B1G3X6); assay: HPAEC-PAD, bioconversion of raffinose; details: raffinose as sole fructosyl donor and acceptor (0.8 M in methods, 0.9 M in figure legend)
T3 construct: gene BgramDRAFT_4066; pET22b(+), E. coli BL21(DE3), HisTrap purified
T3 sequence (B1G3X6 36-529): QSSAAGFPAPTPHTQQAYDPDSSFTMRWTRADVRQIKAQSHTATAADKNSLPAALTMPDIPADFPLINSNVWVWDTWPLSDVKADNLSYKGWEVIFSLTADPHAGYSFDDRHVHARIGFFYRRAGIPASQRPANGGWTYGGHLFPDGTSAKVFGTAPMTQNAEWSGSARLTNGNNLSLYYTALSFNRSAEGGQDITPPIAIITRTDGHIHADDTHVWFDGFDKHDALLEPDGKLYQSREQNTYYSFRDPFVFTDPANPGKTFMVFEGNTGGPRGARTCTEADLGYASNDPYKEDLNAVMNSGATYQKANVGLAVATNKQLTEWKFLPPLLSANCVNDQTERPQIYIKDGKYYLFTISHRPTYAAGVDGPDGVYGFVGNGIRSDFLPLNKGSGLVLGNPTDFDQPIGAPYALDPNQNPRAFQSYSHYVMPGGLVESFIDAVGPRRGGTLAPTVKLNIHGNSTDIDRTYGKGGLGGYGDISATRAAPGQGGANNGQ

[4] = target: T4, LS from Vibrio natriegens (Vibrio natriegens, UniProt A0AAN0Y6N0); assay: HPAEC-PAD, bioconversion of raffinose; details: raffinose as sole fructosyl donor and acceptor (0.8 M in methods, 0.9 M in figure legend)
T4 construct: gene BA890_19745; pET22b(+), E. coli BL21(DE3), HisTrap purified
T4 sequence (A0AAN0Y6N0 28-523): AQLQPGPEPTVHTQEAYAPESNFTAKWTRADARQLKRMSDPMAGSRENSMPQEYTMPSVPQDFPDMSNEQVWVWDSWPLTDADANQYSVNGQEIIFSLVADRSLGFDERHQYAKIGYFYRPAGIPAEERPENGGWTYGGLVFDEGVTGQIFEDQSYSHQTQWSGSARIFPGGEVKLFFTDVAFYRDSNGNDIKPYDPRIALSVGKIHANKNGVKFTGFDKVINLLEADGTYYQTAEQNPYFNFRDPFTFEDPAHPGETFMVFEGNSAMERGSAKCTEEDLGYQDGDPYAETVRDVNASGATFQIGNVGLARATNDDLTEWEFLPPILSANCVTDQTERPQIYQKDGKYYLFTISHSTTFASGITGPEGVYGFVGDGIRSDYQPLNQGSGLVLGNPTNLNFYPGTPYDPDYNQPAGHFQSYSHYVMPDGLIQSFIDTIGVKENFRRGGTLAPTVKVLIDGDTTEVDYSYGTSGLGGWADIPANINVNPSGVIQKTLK

[5] = target: T5, LS from Beijerinckia indica subsp. indica (Beijerinckia indica, UniProt B2IF78); assay: HPAEC-PAD, bioconversion of raffinose; details: raffinose as sole fructosyl donor and acceptor (0.8 M in methods, 0.9 M in figure legend)
T5 construct: gene Bind_2021; pET22b(+), E. coli BL21(DE3), HisTrap purified
T5 sequence (B2IF78 29-534): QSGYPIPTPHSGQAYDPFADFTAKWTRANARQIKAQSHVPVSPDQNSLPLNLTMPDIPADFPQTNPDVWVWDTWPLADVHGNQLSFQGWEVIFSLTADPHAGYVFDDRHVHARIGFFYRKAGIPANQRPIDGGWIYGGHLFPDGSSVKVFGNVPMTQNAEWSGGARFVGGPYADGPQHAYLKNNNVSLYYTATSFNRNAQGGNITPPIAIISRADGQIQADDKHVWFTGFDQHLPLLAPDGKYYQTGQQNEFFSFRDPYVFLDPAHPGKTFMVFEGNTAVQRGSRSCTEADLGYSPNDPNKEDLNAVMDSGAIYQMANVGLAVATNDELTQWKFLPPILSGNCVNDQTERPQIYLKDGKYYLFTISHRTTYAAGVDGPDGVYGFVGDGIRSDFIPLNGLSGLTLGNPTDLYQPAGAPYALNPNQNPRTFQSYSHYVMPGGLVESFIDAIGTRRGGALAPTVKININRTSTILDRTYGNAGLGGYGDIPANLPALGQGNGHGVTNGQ

[6] = target: T3, LS from Paraburkholderia graminis; assay: HPAEC-PAD time course of sucrose conversion; details: 0.8 M sucrose, 30 °C, 5-7 U/mL; fructosyl donor and acceptor
[7] = target: T2, LS from Gluconobacter oxydans; assay: HPAEC-PAD time course of sucrose conversion; details: 0.8 M sucrose, 30 °C, 5-7 U/mL; fructosyl donor and acceptor

Structure (SMILES) | HPAEC-PAD, bioconversion of raffinose [1] | HPAEC-PAD, bioconversion of raffinose [2] | HPAEC-PAD, bioconversion of raffinose [3] | HPAEC-PAD, bioconversion of raffinose [4] | HPAEC-PAD, bioconversion of raffinose [5] | HPAEC-PAD time course of sucrose conversion [6] | HPAEC-PAD time course of sucrose conversion [7]
OC[C@H]1O[C@H](OC[C@H]2O[C@H](O[C@]3(CO)O[C@H](CO)[C@@H](O)[C@@H]3O)[C@H](O)[C@@H](O)[C@@H]2O)[C@H](O)[C@@H](O)[C@H]1O [raffinose] | LS from V. natriegens, N. aromaticivorans, and B. indica subsp. indica preferred raffinose as the substrate | All LSs were able to produce a few different trisaccharides | LS from P. graminis catalyzed the synthesis of multiple oligosaccharides using raffinose | LS from V. natriegens, N. aromaticivorans, and B. indica subsp. indica preferred raffinose as the substrate | LS from V. natriegens, N. aromaticivorans, and B. indica subsp. indica preferred raffinose as the substrate | – | –
OC[C@H]1O[C@@](CO)(O[C@H]2O[C@H](CO)[C@@H](O)[C@H](O)[C@H]2O)[C@@H](O)[C@@H]1O [sucrose] | – | – | – | – | – | The LS from P. graminis used the highest amount of sucrose amongst all the enzymes tested | The LSs from G. oxydans and P. graminis almost depleted the sucrose
